Data from patent US20200392107A1, “CYCLIC AMINE DERIVATIVE AND MEDICAL USE THEREOF” (Toray Industries, Inc., priority 2018, published 2020).

How the values were obtained:
[1] = system: DNFB-induced mouse allergic dermatitis model; test: DNFB-induced mouse allergic dermatitis model; format: in vivo; settings: 10 mg/kg orally one hour before induction; BALB/c mice; vs vehicle, P<0.05
Procedure: Using increase in the ear swelling rate as an index of exacerbation of symptoms, the effect of the cyclic amine derivative (I) or a pharmacologically acceptable salt thereof in a DNFB-induced mouse allergic dermatitis model was evaluated. The DNFB-induced mouse allergic dermatitis model was prepared by a partially modified method by Curzytek et al. (Pharmacological Reports, 2013, Vol. 65, p. 1237-1246).
BALB/c mice (female, 6 weeks old) (Charles River Laboratories Japan, Inc.) were used at 8 weeks old after preliminary breeding. To the back of the mice, 25 μL of a 0.5 v/v % DNFB solution dissolved in acetone:olive oil (4:1) was applied. The next day, the same operation was repeated to sensitize the mice. Four days after the sensitization, 10 μL each of a 0.2 v/v % DNFB solution dissolved in acetone:olive oil (4:1) was applied to both sides of the right auricle of the sensitized mice to induce inflammation.
One hour before induction, a test compound at a dose of 10 mg/kg was administered to the mice. As the test compound, the compound of Example 1, the compound of Example 4, and the compound of Example 9 were used. The compound of Example 1, the compound of Example 4, and the compound of Example 9 were respectively suspended in a 0.5 w/v % methylcellulose solution and orally administered. The group in which the compound of Example 1 was administered to mice was defined as the Example-1 compound administration group, the group in which the compound of Example 4 was administered was defined as the Example-4 compound administration group, and the group in which the compound of Example 9 was administered was defined as the Example-9 compound administration group. […]
The right ear thickness before application of the DNFB solution (before induction) on the induction day and the right ear thickness at the 24th hour after induction were measured with a digital micrometer (Mitutoyo Corporation). The swelling rate of the auricle was calculated by Formula (3) and used as an index of the drug efficacy evaluation: […]

[2] = system: mouse alopecia areata model; test: Mouse alopecia areata model; format: in vivo; settings: 10 mg/kg orally once daily for 42 days, Day 49 to Day 90; C3H/HeJ mice
Procedure: The effect of the cyclic amine derivative (I) or a pharmacologically acceptable salt thereof in a mouse alopecia areata model was evaluated using increase in the hair loss score as an index of worsening of symptoms. The mouse alopecia areata model was prepared by a partially modified method by Wang et al. (Journal of Investigative Dermatology, 2015, vol. 135, p. 2530-2532).
Female C3H/HeJ mice (CLEA Japan, Inc.) with spontaneous hair loss in 70% or more of the body surface were used as donor mice. The donor mice were euthanized by cervical dislocation, and then the groin, axilla, and auricular lymph nodes were aseptically removed. […]
On Day 49, photographs of the back and the abdomen of the mice were taken under isoflurane anesthesia. The status of hair loss was evaluated by a partially modified method by Alli et al. (Journal of Immunology, 2012, vol. 188, p. 477-486). In other words, the ratio of the area of hair loss site to the body surface area was scored in accordance with the criteria mentioned in Table 4, and regarded as the hair loss score. Specifically, the hair loss score was determined based on the numerical value of the ratio calculated from Formula (4): […]
Grouping was performed using the mouse hair loss score calculated on Day 49 as an index (the hair loss score on Day 49 (mean±standard error): 3.6±0.66). […]

SMILES	increase in the ear swelling rate (24th hour after induction) [1]	increase in the hair loss score (Day 91) [2]
CC(=O)N1CCCC[C@@H]1C(=O)Nc1cc(Cl)c2c(c1)CCCN2Cc1ccc(C(F)(F)F)cc1 [Example 1, (R)-1-acetyl-N-(8-chloro-1-(4-(trifluoromethyl)benzyl)-1,2,3,4-tetrahydroquinolin-6-yl)piperidine-2-carboxamide]	statistically significantly suppressed	
CC(=O)N1CCCC[C@@H]1C(=O)Nc1cc(Cl)c2c(c1)CCN2Cc1ccc(C(F)(F)F)cc1 [Example 4, (R)-1-acetyl-N-(7-chloro-1-(4-(trifluoromethyl)benzyl)indolin-5-yl)piperidine-2-carboxamide]	statistically significantly suppressed	suppressed
CC(=O)N1CCCC[C@@H]1C(=O)Nc1cc(Cl)c2c(c1)CCN2C[C@H]1CC[C@H](C(F)(F)F)CC1 [Example 9, (R)-1-acetyl-N-(7-chloro-1-((trans-4-(trifluoromethyl)cyclo-hexyl)methyl)indolin-5-yl)piperidine-2-carboxamide]	statistically significantly suppressed	
